Tests used:
[1] = molecular target: T1, Flt-1 VEGF-receptor tyrosine kinase (Homo sapiens, UniProt P17948); assay: Test for activity against Flt-1 VEGF-receptor tyrosine kinase; format: biochemical; settings: kinase domain of Flt-1, poly(Glu,Tyr) 4:1, 8 μM [33P]-ATP, 10 minutes at room temperature
T1 construct: 10 ng of the kinase domain of Flt-1
T1 sequence (P17948 827-1158 limits assumed): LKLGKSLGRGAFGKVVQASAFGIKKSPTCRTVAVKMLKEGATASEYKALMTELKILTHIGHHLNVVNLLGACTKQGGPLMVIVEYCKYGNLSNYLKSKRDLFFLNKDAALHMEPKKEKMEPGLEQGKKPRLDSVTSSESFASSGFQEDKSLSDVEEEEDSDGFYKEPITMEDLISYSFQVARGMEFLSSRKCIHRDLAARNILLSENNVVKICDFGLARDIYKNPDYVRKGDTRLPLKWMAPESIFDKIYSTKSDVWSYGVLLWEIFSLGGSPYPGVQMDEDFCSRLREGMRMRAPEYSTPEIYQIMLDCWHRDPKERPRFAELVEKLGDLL
Description: Test for activity against VEGF-receptor tyrosine kinase. The test is conducted using Flt-1 VEGF-receptor tyrosine kinase. […] The reaction is then terminated by the addition of 10 μl 0.25 M ethylenediaminetetraacetate (EDTA) pH 7. Using a multichannel dispenser (LAB SYSTEMS, USA), an aliquot of 20 μl is applied to a PVDF (=polyvinyl difluoride) Immobilon P membrane (Millipore, USA), through a Millipore microtiter filter manifold and connected to a vacuum. Following complete elimination of the liquid, the membrane is washed 4 times successively in a bath containing 0.5% phosphoric acid (H3PO4) and once with ethanol, incubated for 10 minutes each time while shaking, then mounted in a Hewlett Packard TopCount Manifold and the radioactivity measured after the addition of 10 μl Microscint® (β-scintillation counter liquid).
The test is conducted using Flt-1 VEGF-receptor tyrosine kinase, as described hereinabove.

| Compound | melting point [°C] | IC50 [1] [nM] |
| --- | --- | --- |
| O=C(Nc1cc(Cl)cc(C(F)(F)F)c1)c1ccccc1NCc1ccncc1 [Example 8, 2-[(4-Pyridyl)methyl]amino-N-[3-chloro-5-(trifluoromethyl)phenyl]benzamide] | 190 to 194 |  |
| CN(C(=O)c1ccccc1NCc1ccncc1)c1cccc(C(F)(F)F)c1 [Example 24, 2-[(4-Pyridyl)methyl]amino-N-methyl-N-[3-(trifluoromethyl)phenyl]benzamide] | 127 to 128 |  |
| CC(C)(C)c1cccc(NC(=O)c2ccccc2NCc2ccncc2)c1 [Example 15, 2-[(4-Pyridyl)methyl]amino-N-[3-(1,1-dimethylethyl)phenyl]benzamide] | 144 to 147 |  |
| O=C(Nc1ccccc1)c1ccccc1NCc1ccncc1 [Example 3, 2-[(4-Pyridyl)methyl]amino-N-phenylbenzamide] | 160 to 161 |  |
| NC(=O)Nc1cccc(NC(=O)c2ccccc2NCc2ccncc2)c1 [Example 19, 2-[(4-Pyridyl)methyl]amino-N-[3-[(aminocarbonyl)amino]phenyl]benzamide] | 200 to 202 |  |
| O=C(Nc1cccc(Br)c1)c1ccccc1NCc1ccncc1 [Example 29, 2-[(4-Pyridyl)methyl]amino-N-(3-bromophenyl)benzamide] | 156 to 159 |  |
| Cc1cccc(NC(=O)c2ccccc2NCc2ccncc2)c1 [Example 30, 2-[(4-Pyridyl)methyl]amino-N-(3-methylphenyl)benzamide] | 139 to 140 |  |
| Cc1ccc(NC(=O)c2ccccc2NCc2ccncc2)cc1 [Example 5, 2-[(4-Pyridyl)methyl]amino-N-(4-methylphenyl)benzamide] |  | 260 |
| N#Cc1cccc(NC(=O)c2ccccc2NCc2ccncc2)c1 [Example 16, 2-[(4-Pyridyl)methyl]amino-N-(3-cyanophenyl)benzamide] | 157 to 160 |  |
| O=C(Nc1ccc(F)c(C(F)(F)F)c1)c1ccccc1NCc1ccncc1 [Example 9, 2-[(4-Pyridyl)methyl]amino-N-[4-fluoro-3-(trifluoromethyl)phenyl]benzamide] | 183 to 185 |  |
| O=C(Nc1cccc(Cl)c1)c1ccccc1NCc1ccncc1 [Example 28, 2-[(4-Pyridyl)methyl]amino-N-(3-chlorophenyl)benzamide] | 131 to 133 |  |
| COc1ccc(NCc2ccncc2)c(C(=O)Nc2cccc(C(F)(F)F)c2)c1 [Example 21, 5-Methoxy-2-[(4-pyridyl)methyl]amino-N-[3-(trifluoromethyl)phenyl]benzamide] | 175 to 178 |  |
| COc1cc(NC(=O)c2ccccc2NCc2ccncc2)cc(C(F)(F)F)c1 [Example 13, 2-[(4-Pyridyl)methyl]amino-N-[3-methoxy-5-(trifluoromethyl)phenyl]benzamide] | 134 to 136 |  |
| CN(C)c1cccc(NC(=O)c2ccccc2NCc2ccncc2)c1 [Example 20, 2-[(4-Pyridyl)methyl]amino-N-[3-(dimethylamino)phenyl]benzamide] | 152 to 154 |  |
| CC(=O)Nc1cccc(NC(=O)c2ccccc2NCc2ccncc2)c1 [Example 18, 2-[(4-Pyridyl)methyl]amino-N-(3-acetylaminophenyl)benzamide] | 157 to 158 |  |
| O=C(Nc1cccc(C(F)(F)F)c1)c1cc(F)c(F)cc1NCc1ccncc1 [Example 23, 4,5-Difluoro-2-[(4-pyridyl)methyl]amino-N-[3-(trifluoromethyl)phenyl]benzamide] | 175 to 178 |  |
| O=C(Nc1cc(F)cc(C(F)(F)F)c1)c1ccccc1NCc1ccncc1 [Example 10, 2-[(4-Pyridyl)methyl]amino-N-[3-fluoro-5-(trifluoromethyl)phenyl]benzamide] | 196 to 197 |  |
| CC(C)(C)c1ccc(NC(=O)c2ccccc2NCc2ccncc2)cc1 [Example 27, 2-[(4-Pyridyl)methyl]amino-N-[4-(1,1-dimethylethyl)phenyl]benzamide] | 168 to 170 |  |
| O=C(Nc1ccc(Cl)c(C(F)(F)F)c1)c1ccccc1NCc1ccncc1 [Example 7, 2-[(4-Pyridyl)methyl]amino-N-[4-chloro-3-(trifluoromethyl)phenyl]benzamide] | 162 to 172 | 560 |

The next lines start with the values.

| melting point [°C] | IC50 [1] [nM] | Compound |
| --- | --- | --- |
| 186 |  | O=C(Nc1ccc(Cl)cc1)c1ccc(Cl)cc1NCc1ccncc1 [Example 55, 4-chloro-2-[(4-pyridyl)methyl]amino-N-(4-chlorophenyl)benzamide] |
| 195 to 203 |  | NC(=O)c1cccc(NC(=O)c2ccccc2NCc2ccncc2)c1 [Example 32, 2-[(4-Pyridyl)methyl]amino-N-[3-(aminocarbonyl)phenyl]benzamide] |
| 181 to 184 |  | O=C(Nc1ccc(Cl)cc1)c1ccccc1NCc1ncc[nH]1 [Example 40, 2-[(2-Imidazolyl)methyl]amino-N-(4chlorophenyl)benzamide] |
| 127 |  | Cc1ccc(NCc2ccncc2)c(C(=O)Nc2ccc(Cl)cc2)c1 [Example 56, 5-methyl-2-[(4-pyridyl)methyl]amino-N-(4-chlorophenyl)benzamide] |
| 143 |  | Cc1ccccc1NC(=O)c1ccccc1NCc1ccncc1 [Example 70, 2-[(4-pyridyl)methyl]amino-N-(2-methylphenyl)benzamide] |
| 176 to 178 |  | O=C(Nc1cccc(C(F)(F)F)c1)c1ccccc1NCc1cccc2ncccc12 [Example 36, 2-[(5-Quinolinyl)methyl]amino-N-[3-(trifluoromethyl)phenyl]benzamide] |
| 190 |  | Cc1cccc(NCc2ccncc2)c1C(=O)Nc1ccc(Cl)cc1 [Example 47, 6-methyl-2-[(4-pyridyl)methyl]amino-N-(4-chlorophenyl)benzamide] |
| 235 |  | O=C(Nc1ccc2cccc(O)c2c1)c1ccccc1NCc1ccncc1 [Example 54, 2-[(4-pyridyl)methyl]amino-N-(8-hydroxy-2-naphthyl)benzamide] |
| 140 to 142 |  | O=C(Nc1cccc(C(F)(F)F)c1)c1ccccc1NCc1cccnc1 [Example 34, 2-[(3-Pyridyl)methyl]amino-N-[3-(trifluoromethyl)phenyl]benzamide] |
| 178 to 209 |  | O=C(Nc1ccc(Cl)cc1)c1ccccc1NCc1ccnc2ccccc12 [Example 39, 2-[(4-Quinolinyl)methyl]amino-N-(4chlorophenyl)benzamide] |
| 206 to 207 |  | O=C(Nc1ccc(Cl)cc1)c1cc(Cl)ccc1NCc1ccncc1 [Example 59, 5-chloro-2-[(4-pyridyl)methyl]amino-N-(4-chlorophenyl)benzamide] |
| 130 to 132 |  | O=C(Nc1cc2ccccc2cc1Br)c1ccccc1NCc1ccncc1 [Example 65, 2-[(4-pyridyl)methyl]amino-N-(3-bromo-2-naphthyl)benzamide] |
| 143 |  | Cc1ccc(NC(=O)c2ccccc2NCc2ccncc2)cc1Cl [Example 69, 2-[(4-pyridyl)methyl]amino-N-(3-chloro-4-methylphenyl)benzamide] |
| 152 to 154 |  | COc1cc(NC(=O)c2ccccc2NCc2ccncc2)cc2ccccc12 [Example 64, 2-[(4-pyridyl)methyl]amino-N-(4-methoxy-2-naphthyl)benzamide] |
| 191 to 193 |  | O=C(Nc1cccc(C(F)(F)F)c1)c1ccccc1NCc1ccnc2ccccc12 [Example 35, 2-[(4-Quinolinyl)methyl]amino-N-[3-(trifluoromethyl)phenyl]benzamide] |
| 102 to 103 |  | O=C(Nc1cccc(C(F)(F)F)c1)c1ccccc1NCCc1cccnc1 [Example 42, 2-[2-(3-Pyridyl)ethyl]amino-N-[3-(trifluoromethyl)phenyl]benzamide] |
| 162 to 163 |  | Cc1ccc(NC(=O)c2c(C)cccc2NCc2ccncc2)cc1 [Example 33, 2-[(4-Pyridyl)methyl]amino-N-(4-methylphenyl)-6-methylbenzamide] |
| 183 to 185 |  | O=C(Nc1ccc(Cl)cc1)c1c(Cl)cccc1NCc1ccncc1 [Example 48, 6-chloro-2-[(4-pyridyl)methyl]amino-N-(4-chlorophenyl)benzamide] |
| 79 |  | CC(C)NC(=O)c1ccc(NC(=O)c2ccccc2NCc2ccncc2)cc1 [Example 68, 2-[(4-pyridyl)methyl]amino-N-[4-(isopropylcarbamoyl)phenyl]benzamide] |
| 70 |  | CC(C)OC(=O)c1ccc(NC(=O)c2ccccc2NCc2ccncc2)cc1 [Example 66, 2-[(4-pyridyl)methyl]amino-N-[4-(isopropoxycarbonyl)phenyl]benzamide] |
